The values that follow come from patent US8841233B2, “Herbicidal compositions comprising 4-amino-3-chloro-5-fluoro-6-(4-chloro-2-fluoro-3-methoxyphenyl) pyridine-2-carboxylic acid or a derivative thereof and 4-hydroxyphenyl-pyruvate dioxygenase (HPPD) inhibitors” (Dow Agrosciences LLC, priority 2012, dated 2014).

Experiment [1] concerns ECHCO. Description: Post-emergence foliar-applied weed control, greenhouse (Example I). The experiment is classed as in vivo, Echinochloa colona (L.) Link. The text has this: (§1) Evaluation of Post-emergence Foliar-Applied Herbicidal Mixtures for Weed Control in Direct Seeded Rice
(§2) Seeds or nutlets of the desired test plant species were planted in a soil matrix prepared by mixing a loam or sandy loam soil (e.g., 28.6 percent silt, 18.8 percent clay, and 52.6 percent sand, with a pH of about 5.8 and an organic matter content of about 1.8 percent) and calcareous grit in an 80 to 20 ratio. The soil matrix was contained in plastic pots with a volume of 1 quart and a surface area of 83.6 square centimeters (cm^2). When required to ensure good germination and healthy plants, a fungicide treatment and/or other chemical or physical treatment was applied. The plants were grown for 8-22 days in a greenhouse with an approximate 14 h photoperiod which was maintained at about 29° C. during the day and 26° C. during the night. Nutrients (Peters Excel® 15-5-15 5-Ca 2-Mg and iron chelate) were applied in the irrigation solution as needed and water was added on a regular basis. Supplemental lighting was provided with overhead metal halide 1000-Watt lamps as necessary. The plants were employed for testing when they reached the first through fourth true leaf stage.
(§3) Treatments consisted of the acid or esters of 4-amino-3-chloro-5-fluoro-6-(4-chloro-2-fluoro-3-methoxy-phenyl)pyridine-2-carboxylic acid (Compound A), each formulated as an SC (suspension concentrate), and various herbicidal components alone and in combination. Forms of Compound A were applied on an acid equivalent basis.
(§4) Other herbicidal components were applied on an active ingredient basis and included 4-hydroxyphenyl pyruvate dioxygenase (HPPD)-inhibiting herbicides mesotrione formulated as Callisto®, sulcotrione formulated as Mikado®, pyrazolynate formulated as Sunbird® 10% GR, and benzobicyclon formulated as Benzobicyclon 3.5%.
(§5) Treatment requirements were calculated based upon the rates being tested, the concentration of active ingredient or acid equivalent in the formulation, and a 12 mL application volume at a rate of 187 L/ha.
(§6) For treatments comprised of formulated compounds, measured amounts of compounds were placed individually in 25 mL glass vials and diluted in a volume of 1.25% (v/v) Agri-Dex® crop oil concentrated to obtain 12× stock solutions. […] Application solutions were prepared by adding an appropriate amount of each stock solution (e.g., 1 mL) and diluted to the appropriate final concentrations with the addition of 10 mL of an aqueous mixture of 1.25% (v/v) crop oil concentrate so that the final spray solutions contained 1.25+/−0.05% (v/v) crop oil concentrate.
(§7) For treatments comprised of formulated and technical compounds, weighed amounts of the technical materials were placed individually in 25 mL glass vials and dissolved in a volume of 97:3 v/v acetone/DMSO to obtain 12× stock solutions, and measured amounts of the formulated compounds were placed individually in 25 mL glass vials and diluted in a volume of 1.5% (v/v) crop oil concentrate or water to obtain 12× stock solutions. […] Application solutions were prepared by adding an appropriate amount of each stock solution (e.g., 1 mL) and diluted to the appropriate final concentrations with the addition of an appropriate amount of an aqueous mixture of 1.5% (v/v) crop oil concentrate so that the final spray solutions contained 1.25% (v/v) crop oil concentrate. As required, additional water and/or 97:3 v/v acetone/DMSO was added to individual application solutions so that the final acetone and DMSO concentrations of the application solutions being compared were 8.1% and 0.25%, respectively.
(§8) All stock solutions and applications solutions were visually inspected for compound compatibility prior to application. Spray solutions were applied to the plant material with an overhead Mandel track sprayer equipped with a 8002E nozzles calibrated to deliver 187 L/ha over an application area of 0.503 m^2 at a spray height of 18 to 20 inches (46 to 50 cm) above average plant canopy height. […]

The subject of experiment [2] is CYPIR. The description is as above. The class given is in vivo, Cyperus iria L.
Excerpt: as §1, §2, §3, §4, §5, §6, §7, §8

The subject of experiment [3] is SCPJU. Described as above. The class given is in vivo, Schoenoplectus juncoides (Roxb.) Palla.
Excerpt: as §1, §2, §3, §4, §5, §6, §7, §8

Experiment [4] concerns ECHCG. Described as above. The class given is in vivo, Echinochloa crusgalli (L.) Beauv.
Excerpt: as §1, §2, §3, §4, §5, §6, §7, §8

In experiment [5] the test system is ECHCG. The experiment is described as follows: In-water applied weed control, transplanted paddy rice, greenhouse (Example II). The experiment is classed as in vivo, Echinochloa crusgalli (L.) Beauv. Particulars: for Visual Weed Control (%) - 22 DAA ECHCG Obs: Benzobicyclon (3.5%). How it is done:
(§9) Evaluation of in-Water Applied Herbicidal Mixtures for Weed Control in Transplanted Paddy Rice
(§10) Weed seeds or nutlets of the desired test plant species were planted in puddled soil (mud) prepared by mixing a shredded, non-sterilized mineral soil (50.5 percent silt, 25.5 percent clay, and 24 percent sand, with a pH of about 7.6 and an organic matter content of about 2.9 percent) and water at a 1:1 volumetric ratio. The prepared mud was dispensed in 365 mL aliquots into 16-ounce (oz.) non-perforated plastic pots with a surface area of 86.59 square centimeters (cm^2) leaving a headspace of 3 centimeters (cm) in each pot. Mud was allowed to dry overnight prior to planting or transplanting. Rice seeds were planted in Sun Gro MetroMix® 306 planting mixture, which typically has a pH of 6.0 to 6.8 and an organic matter content of about 30 percent, in plastic plug trays. Seedlings at the second or third leaf stage of growth were transplanted into 840 mL of mud contained in 32-oz. non-perforated plastic pots with a surface area of 86.59 cm^2 4 days prior to herbicide application. The paddy was created by filling the headspace of the pots with 2.5 to 3 cm of water. When required to ensure good germination and healthy plants, a fungicide treatment and/or other chemical or physical treatment was applied. The plants were grown for 4-22 days in a greenhouse with an approximate 14 h photoperiod which was maintained at about 29′C during the day and 26° C. during the night. Nutrients were added as Osmocote® (19:6:12, N:P:K+ minor nutrients) at 2 g per 16-oz. pot and 4 g per 32-oz. pot. Water was added on a regular basis to maintain the paddy flood, and supplemental lighting was provided with overhead metal halide 1000-Watt lamps as necessary. The plants were employed for testing when they reached the first through fourth true leaf stage.
(§11) Treatments consisted of the acid or esters of 4-amino-3-chloro-5-fluoro-6-(4-chloro-2-fluoro-3-methoxy-phenyl)pyridine-2-carboxylic acid (compound A) each formulated as an SC (suspension concentrate) and various herbicidal components alone and in combination. Forms of compound A were applied on an acid equivalent basis.
(§12) Other herbicidal components were applied on an active ingredient basis and included 4-hydroxyphenyl pyruvate dioxygenase (HPPD)-inhibiting herbicides mesotrione formulated as Callisto®, sulcotrione formulated as Mikado®, pyrazolynate formulated as Sunbird® 10% GR, and benzobicyclon formulated as Benzobicyclon 3.5% or technical material.
(§13) Treatment requirements for each compound or herbicidal component were calculated based upon the rates being tested, the concentration of active ingredient or acid equivalent in the formulation, an application volume of 2 mL per component per pot, and an application area of 86.59 cm^2 per pot.
(§14) For formulated compounds, a measured amount was placed in an individual 100 or 200 mL glass vial and was dissolved in a volume of 1.25% (v/v) Agri-Dex® crop oil concentrate to obtain application solutions.
(§15) For technical grade compounds, a weighed amount was placed in an individual 100 to 200 mL glass vial and was dissolved in a volume of acetone to obtain concentrated stock solutions. […] The concentrated stock solutions obtained were diluted with an equivalent volume of an aqueous mixture containing 2.5% (v/v) crop oil concentrate so that the final application solutions contained 1.25% (v/v) crop oil concentrate.
(§16) Applications were made by injecting with a pipetter appropriate amounts of the application solutions, individually and sequentially, into the aqueous layer of the paddy. Control plants were treated in the same manner with the solvent blank. Applications were made so that all treated plant material received the same concentrations of acetone and crop oil concentrate.
(§17) The treated plants and control plants were placed in a greenhouse as described above and water was added as needed to maintain a paddy flood. […]

The subject of experiment [6] is ECHOR. Described as above. The experiment is classed as in vivo, Echinochloa oryzoides (Ard.) Fritsch. The method, then: as §9, §10, §11, §12, §13, §14, §15, §16, §17
Experiment [7] has as its system SCPMA. The description is as above. The class given is in vivo. How it is done: as §9, §10, §11, §12, §13, §14, §15, §16, §17
In experiment [8] the test system is CYPRO. The description is as above. The class given is in vivo, Cyperus rotundus L. How it is done:
as §9, §10, §11, §12, §13, §14, §15, §16, §17

In experiment [9] the test system is BRAPP. The experiment is described as follows: Post-emergence foliar-applied weed control, greenhouse (Example I). The experiment is classed as in vivo.
Excerpt: as §1, §2, §3, §4, §5, §6, §7, §8

Experiment [10] deals with IPOHE. Described as above. The class given is in vivo, Ipomoea hederacea Jacq.
Excerpt: as §1, §2, §3, §4, §5, §6, §7, §8

Experiment [11] concerns DIGSA. The description is as above. The experiment is classed as in vivo, Digitaria sanguinalis (L.) Scop. Particulars: 140 gaiha.
Excerpt: as §1, §2, §3, §4, §5, §6, §7, §8

For experiment [12], the system named is FIMMI. The experiment is described as follows: In-water applied weed control, transplanted paddy rice, greenhouse (Example II). The class given is in vivo, Fimbristylis miliacea (L.) Vahl. Particulars: 35 gai/ha. How it is done:
as §9, §10, §11, §12, §13, §14, §15, §16, §17

Where [13] appears, read: 50 gai/ha, Benzobicyclon (technical).
Setting [14] is: 100 gae/ha, Benzobicyclon (technical).
Where [15] appears, read: 100 gai/ha, Benzobicyclon (3.5%).
Where [16] appears, read: 200 gai/ha, Benzobicyclon (3.5%).

The structures appear in SMILES notation.
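Wherever Visual Weed Control (%) - 20 DAA ECHCG Obs is given: visual score 0 no injury to 100 complete kill versus untreated plants.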
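Wherever Visual Weed Control (%) - 20 DAA IPOHE Obs is given: visual score 0 no injury to 100 complete kill versus untreated plants.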

As to `CS(=O)(=O)c1ccc(C(=O)C2=C(Sc3ccccc3)C3CCC(C3)C2=O)c(Cl)c1` (stereo not drawn) [Benzobicyclon, 3-(2-chloro-4-mesylbenzoyl)-2-phenylthiobicyclo[3.2.1]oct-2-en-4-one, reference compound], the entries for the “Visual Weed Control (%) - 22 DAA ECHCO Obs” value in [1] (50 gai/ha), in [1] (100 gai/ha) and in experiment [1] (200 gai/ha) were 10%, 10% and 85%, respectively. Moreover, the “Visual Weed Control (%) - 22 DAA CYPIR Obs” value in experiment [2] (100 gai/ha) and in experiment [2] (200 gai/ha) was 0% each time. Moreover, the “Visual Weed Control (%) - 22 DAA SCPJU Obs” value is 50% in experiment [3] (50 gai/ha), 60% in [3] (100 gai/ha) and 70% in experiment [3] (200 gai/ha). Moreover, the “Visual Weed Control (%) - 22 DAA ECHCG Obs” value stood at 0% in experiment [4] (50 gai/ha); 20% in [4] (100 gai/ha); 15% in [4] (200 gai/ha); 30% in experiment [5] (100 gai/ha); 45% in experiment [5] (200 gai/ha). Besides, the “Visual Weed Control (%) - 22 DAA ECHOR Obs” value in [6] (setting [13]) stood at 50%. The “Visual Weed Control (%) - 21 DAA ECHOR Obs” value in experiment [6] (setting [14]) was 30%. Further, the “Visual Weed Control (%) - 21 DAA SCPMA Obs” value in experiment [7] (setting [14]) came to 80%; in experiment [7] (setting [15]), 70%; in experiment [7] (setting [16]), 93%. Further, the “Visual Weed Control (%) - 22 DAA CYPRO Obs” value in experiment [8] (setting [13]) was 10%; in [8] (setting [15]), 30%; in experiment [8] (setting [16]) it was 45%.

In the case of `CS(=O)(=O)c1ccc(C(=O)C2C(=O)CCCC2=O)c([N+](=O)[O-])c1` [Mesotrione, 2-[4-(methylsulfonyl)-2-nitrobenzoyl]-1,3-cyclohexanedione, reference compound], the “Visual Weed Control (%) - 20 DAA BRAPP Obs” value in experiment [9] (17.5 gai/ha) and in experiment [9] (35 gai/ha) was 0% in each case. In addition, the “Visual Weed Control (%) - 20 DAA ECHCO Obs” value in [1] (17.5 gai/ha), in [1] (35 gai/ha) and in experiment [1] (70 gai/ha) was 0% throughout. The “Visual Weed Control (%) - 20 DAA CYPIR Obs” value is 0% in [2] (17.5 gai/ha) and 50% in [2] (35 gai/ha). In addition, the “Visual Weed Control (%) - 20 DAA IPOHE Obs” value in experiment [10] (35 gai/ha) was determined as 25%; in experiment [10] (70 gai/ha) it was 50%. The “Visual Weed Control (%) - 20 DAA SCPJU Obs” value in [3] (17.5 gai/ha) amounted to 50%; in experiment [3] (35 gai/ha) it was 80%. In addition, the “Visual Weed Control (%) - 20 DAA DIGSA Obs” value in experiment [11] is 58%. In addition, the “Visual Weed Control (%) - 20 DAA ECHCG Obs” value is given as 10% in [5] (35 gai/ha) and 25% in experiment [5] (70 gai/ha). In experiment [6] (140 gaiha), the “Visual Weed Control (%) - 20 DAA ECHOR Obs” value worked out at 80%. Moreover, in experiment [6] (140 gaiha), the “Visual Weed Control (%) -20 DAA ECHOR Obs” value amounted to 80%. Besides, the “Visual Weed Control (%) - 21 DAA FIMMI Obs” value in [12] is given as 78%. Further, the “Visual Weed Control (%) - 21 DAA SCPMA Obs” value in experiment [7] (35 gai/ha) was 80%.
